From ChEMBL document CHEMBL4373734, “Overcoming imatinib resistance in chronic myelogenous leukemia cells using non-cytotoxic cell death modulators” (Eur J Med Chem, 2020)
The source made the active and inactive calls. No cut-off for these calls is given here.

Experiments:
K562-IMA[r] [1] = assay: Induction of sensitization to imatinib-induced cytotoxicity in imatinib-resistant human K562-IMA[r] cells assessed as induction of cell death at 10 uM after 72 hrs in presence of 1 uM imatinib by propidium iodide/Triton-X100 dye based FACS analysis; format: functional
K562-IMA[r] [2] = assay: Cytotoxicity against imatinib-resistant human K562-IMA[r] cells assessed as cell death at 10 uM after 72 hrs by propidium iodide/Triton-X100 dye based FACS analysis
K562-IMA[r] [3] = assay: Induction of sensitization to imatinib-induced cytotoxicity in imatinib-resistant human K562-IMA[r] cells assessed as cell death at 0.1 to 10 uM measured after 72 hrs in presence of 1 uM imatinib by propidium iodide/Triton-X100 dye based FACS analysis; format: functional
[4] = target: T1, Peroxisome proliferator-activated receptor gamma (Homo sapiens) (UniProt P37231); assay: Transactivation of Gal4-fused human PPARgamma transfected in COS7 cells co-transfected with pGAL5-TK-pGL3 and pRennilla-CMV assessed as maximum intrinsic activation at 10 uM incubated for 39 hrs by dual luciferase reporter assay relative to pioglitazone; format: cell-based
T1 sequence (whole entry): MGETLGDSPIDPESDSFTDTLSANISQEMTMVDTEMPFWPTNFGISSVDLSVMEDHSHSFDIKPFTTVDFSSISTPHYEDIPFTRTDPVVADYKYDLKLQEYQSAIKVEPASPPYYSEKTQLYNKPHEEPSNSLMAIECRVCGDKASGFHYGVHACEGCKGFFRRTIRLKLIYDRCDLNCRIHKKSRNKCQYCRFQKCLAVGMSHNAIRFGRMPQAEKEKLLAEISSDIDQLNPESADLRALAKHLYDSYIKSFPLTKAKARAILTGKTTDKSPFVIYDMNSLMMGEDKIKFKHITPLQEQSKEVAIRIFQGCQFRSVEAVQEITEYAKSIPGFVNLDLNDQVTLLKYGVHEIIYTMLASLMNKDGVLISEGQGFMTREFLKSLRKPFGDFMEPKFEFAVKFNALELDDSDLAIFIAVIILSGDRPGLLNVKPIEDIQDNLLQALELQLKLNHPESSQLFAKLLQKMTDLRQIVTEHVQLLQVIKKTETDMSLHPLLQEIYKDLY

[5] = Solubility of compound in water at >20 uM; format: physicochemical; conditions: buffer
[6] = target: T1, Peroxisome proliferator-activated receptor gamma (Homo sapiens); assay: Transactivation of Gal4-fused human PPARgamma transfected in COS7 cells co-transfected with pGAL5-TK-pGL3 and pRennilla-CMV assessed as maximum intrinsic activation at 20 uM incubated for 39 hrs by dual luciferase reporter assay; format: cell-based
K562-IMA[r] [7] = assay: Cytotoxicity against imatinib-resistant human K562-IMA[r] cells assessed as induction of cell death at 10 uM after 72 hrs by propidium iodide/Triton-X100 dye based FACS analysis relative to control
K562-IMA[r] [8] = assay: Induction of sensitization to imatinib induced cytotoxicity in imatinib-resistant human K562-IMA[r] cells assessed as cell death up to 2.5 uM measured after 72 hrs in presence of 1 uM imatinib by propidium iodide/Triton-X100 dye based FACS analysis; format: functional
K562-IMA[r] [9] = assay: Induction of sensitization to imatinib-induced cytotoxicity in imatinib-resistant human K562-IMA[r] cells assessed as gain in cell death rate at 5 uM measured after 72 hrs in presence of 1 uM imatinib by propidium iodide/Triton-X100 dye based FACS analysis relative to imatinib-treated control; format: functional
[10] = Cytotoxicity against human HS5 cells assessed as cell death at 10 uM after 72 hrs by propidium iodide/Triton-X100 dye based FACS analysis
K562 = assay: Cytotoxicity against human K562 cells assessed as cell death at 10 uM after 72 hrs by propidium iodide/Triton-X100 dye based FACS analysis; conditions: k562, 72 h
COS-7 = assay: Cytotoxicity against African green monkey COS7 cells assessed as effect on cell metabolic activity at 20 uM after 72 hrs by MTT assay; format: ADME, cell-based; conditions: chlorocebus aethiops, cos-7, 72 h
K562-IMA[r] [11] = assay: Decrease in STAT5 expression in imatinib-resistant human K562-IMA[r] cells at 10 uM after 24 hrs in presence of 1 uM imatinib by Western blot analysis; format: functional, cell-based
K562-IMA[r] [12] = assay: Induction of sensitization to imatinib-induced cytotoxicity in imatinib-resistant human K562-IMA[r] cells assessed as induction of cell death at 10 uM after 72 hrs in presence of 1 uM imatinib by propidium iodide/Triton-X100 dye based FACS analysis (reference value: 15%); format: functional
K562-IMA[r] [13] = assay: Induction of sensitization to imatinib-induced cytotoxicity in imatinib-resistant human K562-IMA[r] cells assessed as induction of cell death measured after 72 hrs in presence of 1 uM imatinib by propidium iodide/Triton-X100 dye based FACS analysis; format: functional
[14] = Solubility of compound in DMSO at 10 uM by microscopic analysis; format: physicochemical

CCc1ccc(CCOc2ccc(CC3SC(=O)NC3=O)cc2)nc1 (centres undefined) [PIOGLITAZONE]
Activity (K562-IMA[r] [1]): Active | Activity (K562-IMA[r] [2]): Non-Toxic | Activity (K562-IMA[r] [3]): inactive

CCCc1nc2ccccc2n1Cc1ccc(-c2ccccc2C(N)=O)cc1
Intrinsic activity [4]: 39.5% | solubility [5]: Insoluble | Intrinsic activity [6]: inactive | Activity (K562-IMA[r] [7]): < 20% | Activity (K562-IMA[r] [8]): inactive | Activity (K562-IMA[r] [9]): 16% | Activity [10]: Non-Toxic | Activity (K562): Non-Toxic | Activity (COS-7): Non-Toxic | Activity (K562-IMA[r] [11]): Active | Activity (K562-IMA[r] [12]): 62 - 78% | Activity (K562-IMA[r] [13]): Dose-dependent effect | solubility [14]: Soluble

CCCc1nc2c(Br)cccc2n1Cc1ccc(-c2ccccc2C(N)=O)cc1
Intrinsic activity [4]: 20.8% | solubility [5]: Insoluble | Intrinsic activity [6]: inactive | Activity (K562-IMA[r] [7]): < 20% | Activity (K562-IMA[r] [8]): inactive | Activity (K562-IMA[r] [9]): 21.4% | Activity [10]: Non-Toxic | Activity (K562): Non-Toxic | Activity (COS-7): Non-Toxic | Activity (K562-IMA[r] [11]): Active | Activity (K562-IMA[r] [12]): 62 - 78% | Activity (K562-IMA[r] [13]): Dose-dependent effect | solubility [14]: Soluble
